Results as given in paper PMC10606488, “Usnic Acid Derivatives Inhibit DNA Repair Enzymes Tyrosyl-DNA Phosphodiesterases 1 and 2 and Act as Potential Anticancer Agents” (Genes, 2023).
Where two headings read alike, the source gives them in different places. Values belong to the compound of their own block, whether it stands above or below them.

How the values were obtained:
[1] = system: purified recombinant human Tdp1; conditions: cited from earlier work
Recombinant human Tdp2 [2] = target: T1, Recombinant human Tdp2 (Homo sapiens, UniProt O95551); assay: Gel-based Tdp2 activity assay; type: biochemical
T1 construct: made in house
T1 sequence (O95551 1-362): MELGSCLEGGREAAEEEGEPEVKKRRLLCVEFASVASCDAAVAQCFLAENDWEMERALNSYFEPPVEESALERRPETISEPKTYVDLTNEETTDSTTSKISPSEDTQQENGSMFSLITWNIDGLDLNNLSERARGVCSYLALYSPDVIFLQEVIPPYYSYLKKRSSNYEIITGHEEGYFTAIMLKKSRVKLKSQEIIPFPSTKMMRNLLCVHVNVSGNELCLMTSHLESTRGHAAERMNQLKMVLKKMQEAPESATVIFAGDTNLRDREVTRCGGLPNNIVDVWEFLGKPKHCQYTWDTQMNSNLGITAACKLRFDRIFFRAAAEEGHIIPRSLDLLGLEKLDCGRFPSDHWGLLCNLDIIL

HEK293FT Tdp2−/− cells = assay: Intrinsic cytotoxicity, MTT test, Tdp2 knockout cells; type: cell-based, human; conditions: 10 μM compound, 3 days
Protocol: (§1) The intrinsic cytotoxicity of the compounds was examined against cell line HEK293FT (human embryonic kidney) with a standard MTT test. The cells were grown in DMEM-F12 medium, with 50 IU/mL penicillin and 50 µg/mL streptomycin (Thermo Fisher Scientific, Waltham, MA, USA) in the presence of 10% fetal bovine serum (Biolot, Saint-Petersburg, Russia) in 5% CO2 atmosphere. Tested compounds were added after formation of a 30–50% monolayer to the medium (1:100 added reagents to the total volume of the culture medium, thus the final concentration of DMSO was 1%) and the cell culture was monitored for 3 days. Control cells were grown in the presence of 1% DMSO. The measurements of cytotoxicity were carried out in three repeats.
We performed a selection of protospacers for human Tdp2 gene knockout with the Benchling CRISPR tool (https://www.benchling.com/) (accessed on 13 February 2020). Two 20-nt protospacer sequences were selected for deletion of exon 6 (PAM sequences in brackets) of the human Tdp2 gene (NM_016614.3): Tdp2-gRNA1 […](AGG) and Tdp2-gRNA2 […](TGG). The scheme of protospacers in the Tdp2 gene is shown on Figure S9A in the Supplementary Materials. Oligonucleotides were cloned in a pSpCas9(BB)-2A-GFP (PX458) plasmid that was a kind gift from Dr. Feng Zhang (Addgene plasmid #48138; http://n2t.net/addgene:48138 (accessed on 13 February 2020), RRID:Addgene_48138) as previously described. Transfection-grade DNA plasmids were isolated with the Plasmid Plus Midi Kit (QIAGEN, Hilden, Germany).
We transfected HEK293FT cells with the constructed plasmids (0.25 µg of each) pX458-Tdp2-gRNA1 and pX458-Tdp2-gRNA2 using Lipofectamine 3000 Reagent (Thermofisher Scientific, Waltham, MA, USA). We used growth medium containing DMEM/F12 (Thermofisher Scientific, MA, USA) 1:1, 10% fetal bovine serum (Thermofisher Scientific, MA, USA), 100 U/mL penicillin–streptomycin (Thermofisher Scientific, MA, USA), and GlutaMAX (1×) (Thermofisher Scientific, Waltham, MA, USA). […]

HEK293FT wild-type cells = assay: Intrinsic cytotoxicity, MTT test, wild-type cells; type: cell-based, human; conditions: 10 μM compound, 3 days
Protocol: as §1
Since Tdp inhibitors are intended to be used in therapeutic cocktails, non-toxic concentrations of the compounds are required so as not to exacerbate the already serious side effects of therapy. We studied the intrinsic cytotoxicity of the compounds, (−)-11a,d,h, that inhibited Tdp2 on HEK293FT wild-type cells and Tdp2 knockout (Tdp2^−/−) cells (Figure 3). Tdp2 knockout HEK293FT cells were obtained using the CRISPR/Cas9 method. At 10 μM concentration, the cell survival was not less than 80% for both types of cells. This concentration was chosen for further studies of the ability of the compounds to sensitize the effect of the Top2 inhibitor etoposide.

Recombinant human Tdp2 [3] = target: T1, Recombinant human Tdp2; parameters: method as in PMID 34768766, PMID 35011303; conditions: Figure 2; cited from earlier work
[4] = Effect of compounds on the cytotoxicity of etoposide, Tdp2 knockout cells; type: cell-based; conditions: human, HEK293FT Tdp2 knockout (Tdp2−/−) cells, with vehicle (DMSO 1%)
Protocol: as §1
(§2) Different concentrations of etoposide and fixed concentrations of usnic acid derivatives 10 μM were used to evaluate the effect of the tested compounds on the cytotoxicity of etoposide.
We performed a selection of protospacers for human Tdp2 gene knockout with the Benchling CRISPR tool (https://www.benchling.com/) (accessed on 13 February 2020). […]
(§3) We studied the effect of Tdp2 inhibitors on the cytotoxic effect of etoposide. The CC50 for etoposide was measured in the presence and absence of compounds. […] The significance of the differences between the metabolic activity of WT and Tdp2^−/− cells was assessed using the Mann–Whitney test. […]

[5] = Effect of compounds on the cytotoxicity of etoposide, wild-type cells; type: cell-based; conditions: human, HEK293FT wild-type cells; with vehicle (DMSO 1%), HEK293FT WT
Protocol: as §1, §2
as §3, with “compounds. The sensitivity to etoposide in Tdp2 knockout cells was close to wild-type cells (Figure 4a).” for “compounds.”

[6] = target: tyrosyl-DNA phosphodiesterase 2; conditions: Figure 2; read-out: IC50 (Tdp2); cited from earlier work
[7] = (−)-usnic acid derivatives, read-out: Tdp1 IC50
[8] = (+)-usnic acid derivatives, read-out: Tdp1 IC50
[9] = Figure 1, read-out: IC50 (Tdp1)
[10] = Figure 2, read-out: IC50 (Tdp1)

IC50 (Recombinant human Tdp2 [2]; (−)-usnic acid derivatives): 8 ± 4 µM
Compound: CC(=O)C1=C(O)C=C2Oc3c(-c4csc(NN=Cc5ccc[nH]5)n4)c(O)c(C)c(O)c3C2(C)C1=O (single isomer, unassigned; (-)) [(−)-11a]
IC50 [1, 7]: 0.018 ± 0.001 µM
cell survival (HEK293FT Tdp2−/− cells): not less than 80%
cell survival (HEK293FT wild-type cells): not less than 80%

IC50 (Recombinant human Tdp2 [2]; (+)-usnic acid derivatives): > 50 µM
Compound: COc1ccc(C=NNc2nc(-c3c(O)c(C)c(O)c4c3OC3=CC(O)=C(C(C)=O)C(=O)C34C)cs2)cc1CN1CCN(c2ccc(F)cc2)CC1 (single isomer, unassigned; (+)) [(+)-11h]
IC50 [1, 8]: 0.08 ± 0.007 µM

Compound: CC(=O)C1=C(O)C=C2Oc3c(-c4csc(N/N=C/c5ccc(Br)cc5)n4)c(O)c(C)c(O)c3[C@@]2(C)C1=O [compound 4, reference compound]
IC50 [1, 9]: 0.026 µM

Compound: CC(=O)C1=C(O)C=C2Oc3c(C(=O)CSC4=NCCS4)c(O)c(C)c(O)c3[C@@]2(C)C1=O [compound 7, reference compound]
IC50 [1, 10]: 4.4 µM
IC50 (Recombinant human Tdp2 [3]): ~1000 µM

Compound: COc1cc([C@@H]2c3cc4c(cc3[C@@H](O[C@@H]3O[C@@H]5CO[C@@H](C)O[C@H]5[C@H](O)[C@H]3O)[C@H]3COC(=O)[C@H]23)OCO4)cc(OC)c1O [etoposide]
CC50 at 3 days [4]: 2.3 µM
CC50 at 3 days [5]: 2.4 µM

Compound: CC(C)=CCC/C(C)=C/COc1ccc2c(-c3ccc(I)cc3)cc(=O)oc2c1 [compound 2, reference compound]
IC50 [1, 9]: 0.62 µM

IC50 (Recombinant human Tdp2 [2]; (+)-usnic acid derivatives): > 50 µM
Compound: CC(=O)C1=C(O)C=C2Oc3c(-c4csc(NN=Cc5c[nH]c6ccccc56)n4)c(O)c(C)c(O)c3C2(C)C1=O (single isomer, unassigned; (+)) [(+)-11d]
IC50 [1, 8]: 0.026 ± 0.006 µM

Compound: NC1=CC(N)=C2C=CC(=O)N=C2C1=O [compound 6]
IC50 [6]: 1.7 µM

IC50 (Recombinant human Tdp2 [2]; (+)-usnic acid derivatives): > 50 µM
Compound: CC(=O)C1=C(O)C=C2Oc3c(-c4csc(NN=Cc5ccc[nH]5)n4)c(O)c(C)c(O)c3C2(C)C1=O (single isomer, unassigned; (+)) [(+)-11a]
IC50 [1, 8]: 0.188 ± 0.003 µM

Compound: CC(=O)c1c(O)c(C)c(O)c2c1OC1=CC(=O)/C(=C(/C)NCCCc3cc(C(C)(C)C)c(O)c(C(C)(C)C)c3)C(=O)[C@@]12C [compound 3, reference compound]
IC50 [1, 9]: 0.16 µM

IC50 (Recombinant human Tdp2 [2]; (−)-usnic acid derivatives): 9 ± 1 µM
Compound: COc1ccc(C=NNc2nc(-c3c(O)c(C)c(O)c4c3OC3=CC(O)=C(C(C)=O)C(=O)C34C)cs2)cc1CN1CCN(c2ccc(F)cc2)CC1 (single isomer, unassigned; (-)) [(−)-11h]
IC50 [1, 7]: 0.059 ± 0.005 µM
cell survival (HEK293FT Tdp2−/− cells): not less than 80%
cell survival (HEK293FT wild-type cells): not less than 80%

Compound: C[C@H](CCC(=O)NCCc1c[nH]c2ccccc12)[C@H]1CCC2C3CCC4C[C@H](OCc5ccccc5)CC[C@]4(C)C3C[C@H](O)[C@@]21C (stereo partly shown) [compound 8, reference compound]
IC50 [1, 10]: 0.24 µM
IC50 (Recombinant human Tdp2 [3]): ~1000 µM

IC50 (Recombinant human Tdp2 [2]; (−)-usnic acid derivatives): 6 ± 3 µM
Compound: CC(=O)C1=C(O)C=C2Oc3c(-c4csc(NN=Cc5c[nH]c6ccccc56)n4)c(O)c(C)c(O)c3C2(C)C1=O (single isomer, unassigned; (-)) [(−)-11d]
IC50 [1, 7]: 0.057 ± 0.001 µM
cell survival (HEK293FT Tdp2−/− cells): not less than 80%
cell survival (HEK293FT wild-type cells): not less than 80%
